pKd: −log10 of the molar value.
Experiments:
[1] = target: HSA (Homo sapiens, UniProt P02768); experiment: chromatographic assay of HSA binding; conditions: for pKd: chromatographic HSA binding assay (Hage)
Description: To assess albumin binding, any assay designed to measure albumin binding can be used. Chromatographic binding assays are especially useful, such as that described by Hage, D S, et al. J (Chromatogr B Biomed Sci Appl. 2000, 739:39-54). Alternatively or in conjunction, binding affinity to albumin can be determined by using surface plasmon resonance. In one method, a BIAcore 200 device (BIAcore Inc.; Piscataway, NJ) is used in combination with a procedure by Lacy, S E, et al. (MAbs, 2015. 7:605-19) as modified herein. Briefly, human and mouse albumin are captured on a CM5 chip using amine coupling at 5000 resonance units. The candidate polypeptides are injected at various concentrations (e.g., 0, 0.625, 1.25, 5, and 10 μM) at a controlled flow rate (e.g., 20 μl/min). The bound peptides are allowed to dissociate for a period of time (e.g., 5 min) before matrix regeneration using 10 mM glycine, pH 3. The signal from an injection passing over an uncoupled cell is subtracted from that of an immobilized cell to generate sensorgrams of the amount of polypeptide bound as a function of time. BIAcore kinetic evaluation software (version 3.1) can be used to determine KD from the association and dissociation rates using a one-to-one binding model. Alternatively or in conjunction, affinity to albumin can be determined using a direct assay, such as described by Nguyen, A, et al. (Protein Eng Des Sel. 2006, 19:291-7). In this method, albumin is immobilized onto high protein-binding capacity polystyrene 96 well plates at a predetermined concentration, such as 2 mg/ml, for a period of time (e.g., overnight) at 4° C. Non-specific binding sites are blocked with binding buffer, and radio-labelled candidate polypeptides are applied to the plates for a period of time, such as 30 minutes, at 25° C. Unbound candidate polypeptides are washed away, and bound candidate polypeptides detected using a radioactivity plate reader.
The two non-natural amino acids (nnAAs 1 and 2; FIG. 1) were synthesized from the corresponding NHS-esters by standard conjugation chemistry (FIG. 1). […]

[2] = tested on: amber nonsense codon in GFPUV-149UAG, PylRS mutant/tRNACUA^Pyl; experiment: amber suppression in GFP by PylRS mutant in E. coli, fluorescence plate reader; format: cell-based; conditions: medium with 1 mM nnAA versus control LB medium, best hit from the library
Description: Since many PylRS mutants have broad substrate specificity, we first screened only a small library of 22 previously evolved PylRS mutants for their ability to incorporate 1 and 2 into green fluorescence protein (GFP) in E coli. The screening was based on the suppression of an amber nonsense codon at a permissive site in a GFP-encoding gene. Briefly, a plasmid, pLei-GFPUV-N149UAG, which contains GFPUV-149UAG and a copy of a tRNACUA^Pyl, was co-transformed into E. coli GeneHogs strain with a plasmid containing a variant of PylRS mutant. Protein expression was carried out in control LB medium and in medium supplemented with 1 mM 1 or 2. After induction of GFP expression and cultivation (12 h), cells were collected, washed, and analyzed using a fluorescence plate reader.

[3] = daily subcutaneous injection, 70-100 mg, 1-2 mg/kg; cited from earlier work

Sequence of HSA (P02768 25-609): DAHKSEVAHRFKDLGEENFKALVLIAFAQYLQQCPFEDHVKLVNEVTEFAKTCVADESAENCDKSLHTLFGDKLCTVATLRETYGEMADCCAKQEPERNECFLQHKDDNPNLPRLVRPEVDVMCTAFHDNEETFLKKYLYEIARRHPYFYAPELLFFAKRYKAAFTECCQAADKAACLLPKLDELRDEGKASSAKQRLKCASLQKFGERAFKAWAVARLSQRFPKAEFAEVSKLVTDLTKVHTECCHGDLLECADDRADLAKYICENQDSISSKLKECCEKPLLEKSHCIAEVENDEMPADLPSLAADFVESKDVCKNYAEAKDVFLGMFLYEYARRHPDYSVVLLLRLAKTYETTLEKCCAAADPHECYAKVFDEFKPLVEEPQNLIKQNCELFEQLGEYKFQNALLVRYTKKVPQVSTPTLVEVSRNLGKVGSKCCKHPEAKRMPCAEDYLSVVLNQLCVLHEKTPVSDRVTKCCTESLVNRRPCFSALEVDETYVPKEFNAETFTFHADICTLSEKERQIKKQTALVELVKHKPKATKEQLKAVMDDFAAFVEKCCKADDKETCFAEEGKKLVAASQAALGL

Row | Compound | pKd [1] | albumin binding ([1]; statement in words) | full-length GFPUV production (fluorescence) [2] | time of peak serum concentration after injection [3] [h]
1 | N[C@@H](CCCCNC(=O)CCCc1ccc(I)cc1)C(=O)O [compound 1] | 5.15 |  |  | 
2 | N[C@@H](CCCCNC(=O)CCc1ccc(I)cc1)C(=O)O [nnAA 2, Nε-(3-(4-iodophenyl)propanoyl)lysine] | 3.69 | binds albumin poorly | significantly more full-length GFPUV proteins were produced | 
3 | anakinra: 17 kD therapeutic protein currently prescribed for the treatment of rheumatoid arthritis |  |  |  | ~6

From patent US11939617B2, “Functionally modified polypeptides and radiobiosynthesis” (Ikaria Inc., priority 2016, dated 2024)
